Among the data in US7807703B2, “Substituted aryl ketones” (Bayer CropScience AG, priority 2002, dated 2010) are logP values, retold here.

The data set is described as follows: log P determination by reversed-phase HPLC (EEC Directive 79/831 Annex V.A8; acidic or neutral mobile phase). The data set is classed as physicochemical. Conditions: HPLC, reversed-phase C18, 43° C.; acidic range a): 0.1% aqueous phosphoric acid, acetonitrile, linear gradient 10% to 90% acetonitrile. Here is the method: The log P values given in the table were determined in accordance with EEC Directive 79/831 Annex V.A8 by HPLC (High Performance Liquid Chromatography) using a reversed-phase column (C 18). Temperature: 43° C.
(a) Mobile phases for the determination in the acidic range: 0.1% aqueous phosphoric acid, acetonitrile; linear gradient from 10% acetonitrile to 90% acetonitrile—the corresponding measurement results are marked a) in Table 1.
(b) Mobile phases for the determination in the neutral range: 0.01 molar aqueous phosphate buffer solution, acetonitrile; linear gradient from 10% acetonitrile to 90% acetonitrile—the corresponding measurement results are marked b) in Table 1.
For the compound `CCn1ncc(C(=O)c2ccc(S(C)(=O)=O)c(CN(OC)C(C)C3CC3)c2Cl)c1O` (centres unmarked) [Example 373], the logP result is “(I-2) logP = 2.94^a)”.

On to `CON(Cc1c(S(C)(=O)=O)ccc(C(=O)c2cnn(C)c2O)c1Cl)C(C)C1CC1` (centres unmarked) [Example 374], for which the logP result was “(I-2) logP = 2.53^a)”. Under `CON(Cc1c(S(C)(=O)=O)ccc(C(=O)c2cnn(C)c2O)c1Cl)C1CCCC1` [Example 378] stands “(I-2) logP = 2.59^a)”; under `CCn1ncc(C(=O)c2ccc(S(C)(=O)=O)c(CN(OC)C3CCCC3)c2Cl)c1O` [Example 379], “(I-2) logP = 2.99^a)”. Under `CON(Cc1cccnc1)Cc1c(S(C)(=O)=O)ccc(C(=O)c2cnn(C)c2O)c1Cl` [Example 386] stands “(I-2) logP = 0.64^a)”; under `CCN(CC)C(=O)CN(Cc1c(S(C)(=O)=O)ccc(C(=O)c2cnn(C)c2O)c1Cl)OC` [Example 388], “(I-2) logP = 1.59^a)”. Under `CCN(CC)C(=O)CN(Cc1c(S(C)(=O)=O)ccc(C(=O)c2cnn(CC)c2O)c1Cl)OC` [Example 389] stands “(I-2) logP = 1.85^a)”. On to `CCON(CC)Cc1c(S(C)(=O)=O)ccc(C(=O)C2C(=O)CCCC2=O)c1Cl` [Example 390], for which the logP result is reported as “logP = 3.22^a)”. `CCON(Cc1c(S(C)(=O)=O)ccc(C(=O)c2cnn(CC)c2O)c1Cl)C(C)C` [Example 392]: the logP entry is “logP = 2.89^a)”. With `CC(C)ON(C)Cc1c(S(C)(=O)=O)ccc(C(=O)C2C(=O)CCCC2=O)c1Cl` [Example 393], the logP entry was “logP = 3.14^a)”. Under `CCn1ncc(C(=O)c2ccc(S(C)(=O)=O)c(CN(C)OC(C)C)c2Cl)c1O` [Example 395] stands “logP = 2.33^a)”; under `CON(CC(=O)N(C)C)Cc1c(S(C)(=O)=O)ccc(C(=O)C2C(=O)CCCC2=O)c1Cl` [Example 396], “(I-2) logP = 1.93^a)”; under `CCn1ncc(C(=O)c2ccc(S(C)(=O)=O)c(CN(C)OC3CCCC3)c2Cl)c1O` [Example 397], “(I-2) logP = 2.87^a)”. Under `CN(Cc1c(S(C)(=O)=O)ccc(C(=O)C2C(=O)CCCC2=O)c1Cl)OC1CCCC1` [Example 398] stands “(I-2) logP = 3.69^a)”; under `CC(C)ON(Cc1c(S(C)(=O)=O)ccc(C(=O)C2C(=O)CCC(C)(C)C2=O)c1Cl)C(C)C` (centres unmarked) [Example 399], “(I-2) logP = 4.80^a)”; under `CC(C)ON(Cc1c(S(C)(=O)=O)ccc(C(=O)c2cnn(C)c2O)c1Cl)C(C)C` [Example 400], “logP = 2.81^a)”. Next, `CS(=O)(=O)c1ccc(C(=O)C2C(=O)CCCC2=O)c(Cl)c1CNOC1CCCC1` [Example 401]: “(I-2) logP = 3.07^a)”. Regarding `CCN(Cc1c(S(C)(=O)=O)ccc(C(=O)C2C(=O)CCCC2=O)c1Cl)OC(C)C` [Example 402], the logP result is reported as “logP = 3.52^a)”. Next, `CCN(Cc1c(S(C)(=O)=O)ccc(C(=O)C2C(=O)CCC(C)(C)C2=O)c1Cl)OC(C)C` (centres unmarked) [Example 403]: “(I-2) logP = 4.36^a)”; `CCN(Cc1c(S(C)(=O)=O)ccc(C(=O)c2cnn(CC)c2O)c1Cl)OC(C)C` [Example 404]: “logP = 2.79^a)”; `CCN(Cc1c(S(C)(=O)=O)ccc(C(=O)C2C(=O)CCC(C)(C)C2=O)c1Cl)OC` (centres unmarked) [Example 405]: “(I-2) logP = 3.70^a)”. On to `CCN(Cc1c(S(C)(=O)=O)ccc(C(=O)c2c(C)nn(CC)c2O)c1Cl)OC` [Example 406], for which the logP entry is “(I-2) logP = 2.04^a)”. `CCN(Cc1c(S(C)(=O)=O)ccc(C(=O)c2c(C)nn(C)c2O)c1Cl)OC` [Example 407]: the logP result is listed as “(I-2) logP = 1.76^a)”.

For the compound `CON(Cc1c(S(C)(=O)=O)ccc(C(=O)C2C(=O)CCCC2=O)c1Cl)CC1CCOC1` (centres unmarked) [Example 408], the logP entry was “(I-2) logP = 2.50^a)”.

As to `CON(Cc1c(S(C)(=O)=O)ccc(C(=O)C2C(=O)CCCC2=O)c1Cl)C1CCOC1` (centres unmarked) [Example 409], the logP entry is listed as “(I-2) logP = 2.32^a)”. Under `CCn1ncc(C(=O)c2ccc(S(C)(=O)=O)c(CN(OC)C3CCOC3)c2Cl)c1O` (centres unmarked) [Example 410] stands “(I-2) logP = 1.70^a)”.
